{
  "source": "paper PMC10910475",
  "about": "“Synthesis and biological profile of 2,3-dihydro[1,3]thiazolo[4,5-b]pyridines, a novel class of acyl-ACP thioesterase inhibitors” (Beilstein Journal of Organic Chemistry, 2024)",
  "data": [
    {"target": "T1, LpFAT A (FAT A from LEMPA; acyl-ACP thioesterase) (Lemna aequinoctialis, UniProt Z9A7P1QTQ5)", "T1 construct": "chloroplast transit peptide replaced by N-terminal 6xHis-tag; pET24; E. coli BL21Star(DE3); Ni-NTA purified", "T1 sequence (Z9A7P1QTQ5 10-320)": "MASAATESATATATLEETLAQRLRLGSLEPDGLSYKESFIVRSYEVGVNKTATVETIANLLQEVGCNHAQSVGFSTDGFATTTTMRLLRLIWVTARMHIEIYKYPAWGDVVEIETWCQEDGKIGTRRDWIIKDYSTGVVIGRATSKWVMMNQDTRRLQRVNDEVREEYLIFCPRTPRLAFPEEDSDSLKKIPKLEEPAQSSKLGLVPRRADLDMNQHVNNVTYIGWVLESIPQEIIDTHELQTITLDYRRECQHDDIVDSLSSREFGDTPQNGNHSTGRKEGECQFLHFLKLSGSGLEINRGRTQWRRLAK", "experiment": "fluorescence polarization competition with fluorescent tracer", "format": "binding", "settings": "25 mM potassium phosphate pH 7.3, 200 mM NaCl, 0.01% Triton X-100, 2 nM tracer, room temperature; value is negative log", "description": "fluorescence polarization competition with fluorescent tracer on LpFAT A (FAT A from LEMPA; acyl-ACP thioesterase)", "values": [
      {"smiles": "Cc1ccccc1-c1nc2c(cc1C)SCN2", "note": "[7c]", "pI50": 6.3},
      {"smiles": "BN1CSc2cc(Br)c(-c3ccccc3C)nc21", "note": "[17d, aminoborane 17d]", "pI50": 4.8},
      {"smiles": "Cc1ccccc1-c1nc2c(cc1C)SCN2C(=O)C(C)C", "note": "[16f]", "pI50": 4.8},
      {"smiles": "Cc1ccccc1COC1CC2(C(C)C)CCC1(C)O2", "note": "(centres unmarked) [compound 1, cinmethylin, reference compound]", "pI50": 6.8},
      {"smiles": "CC(=O)N1CSc2cc(C)c(-c3ccccc3)nc21", "note": "[16a]", "pI50": 5.5},
      {"smiles": "Cc1cc2c(nc1-c1ccccc1F)N(C(=O)C(C)C)CS2", "note": "[16d]", "pI50": 4.7},
      {"smiles": "Cc1cc2c(nc1-c1ccccc1)NCS2", "note": "[7a]", "pI50": 5.9},
      {"smiles": "CC(=O)N1CSc2cc(C)c(-c3ccccc3C)nc21", "note": "[16e]", "pI50": 4.1},
      {"smiles": "Cc1cc2c(nc1-c1ccccc1)N(C(=O)C(C)C)CS2", "note": "[16b]", "pI50": 4.7},
      {"smiles": "Cc1ccccc1-c1nc2c(cc1Br)SCN2B1NB(N)N1", "note": "[17e, aminoborane 17e]", "pI50": "< 4.0"},
      {"smiles": "Cc1cc2scnc2nc1-c1ccccc1F", "note": "[compound 5, 5-(2-fluorophenyl)-6-methyl[1,3]thiazolo[4,5-b]pyridine, reference compound]", "pI50": 7.2},
      {"smiles": "CC(=O)N1CSc2cc(C)c(-c3ccccc3F)nc21", "note": "[16c, 1-[5-(2-fluorophenyl)-6-methyl[1,3]thiazolo[4,5-b]pyridin-3(2H)-yl]ethanone]", "pI50": 5.3},
      {"smiles": "Cc1ccsc1C1=NOC(C)(COCc2c(F)cccc2F)C1", "note": "(centres unmarked) [compound 2, methiozolin, reference compound]", "pI50": 7.1},
      {"smiles": "CC(=O)N1CSc2cc(Br)c(-c3ccccc3)nc21", "note": "[14a]", "pI50": 5.5},
      {"smiles": "Brc1cc2c(nc1-c1ccccc1)NCS2", "note": "[13a, 6-Bromo-5-phenyl-2,3-dihydrothiazolo[4,5-b]pyridine]", "pI50": 5.7},
      {"smiles": "Cc1cc2c(nc1-c1ccccc1F)NCS2", "note": "[7b, 5-(2-Fluorophenyl)-6-methyl-2,3-dihydro[1,3]thiazolo[4,5-b]pyridine]", "pI50": 6.1},
      {"smiles": "Cc1ccccc1-c1nc2c(cc1Br)SCN2", "note": "[13c, 6-bromo-5-(2-tolyl)-2,3-dihydrothiazolo[4,5-b]pyridine]", "pI50": 4.5},
      {"smiles": "CC(C)C(=O)N1CSc2cc(Br)c(-c3ccccc3F)nc21", "note": "[14b]", "pI50": 4.7},
      {"smiles": "CC(=O)N1CSc2cc(Br)c(-c3ccccc3C)nc21", "note": "[14c]", "pI50": 4.3},
      {"smiles": "Fc1ccccc1-c1nc2c(cc1Br)SCN2", "note": "[13b, 6-bromo-5-(2-fluorophenyl)-2,3-dihydro[1,3]thiazolo[4,5-b]pyridine]", "pI50": 7.3}
    ]}
  ]
}
